Results taken from US20100034779A1, “COMPOSITIONS AND METHODS FOR PRODUCING PLURIPOTENT CELLS FROM ADULT TESTIS” (priority 2005, published 2010).
“Also recorded” adds a separate entry of the source.

Columns and labels:
[1] = system: gap junctions; assay: fluorescence recovery after photobleaching (FRAP) of calcein AM in cardiac clusters; assay type: cell-based, mouse; settings: carbenoxolone 50 μmol/L
Description: Functional coupling between cells is confirmed by fluorescence recovery after photobleaching (FRAP) analysis. Briefly, cardiac clusters were loaded with the membrane-permeant fluorescent dye calcein AM (5 μmol/L; Invitrogen) in Ca^2+-free Tyrode solution for 20 min at 37° C. After washing away the excess extracellular fluorescent dye to prevent further loading, the cultures were bathed in Ca^2+-free Tyrode solution and placed on the stage of a Zeiss LSM 5 PASCAL laser-scanning confocal microscope. Using Zeiss software, a rectangular region encompassing 30-50% of a single cell within a cell cluster was selected and its fluorescence was bleached by a high-intensity laser pulse (488 nm, 3-5 s duration). This caused immediate loss of calcein fluorescence emission recorded through a 505 nm long-pass emission filter. Calcein redistribution from adjacent unbleached cells through connexin pores into the bleached region of interest (ROI) was recorded in subsequent confocal images acquired at 30 s intervals for up to 10 min using a low-intensity laser pulse. Fluorescence recovery within ROI was plotted as a function of time and fit to a single exponential function: IROI (t)=A [1−exp (−kt)], where IROI (t) is the ROI fluorescence intensity at time t, A is the amplitude of fluorescence recovery, and k is the rate of recovery. The latter is considered a measure of gap junction permeability. […]

[2] = system: non-human primate SSCs; assay: formation of ESC-like colonies in culture of non-human primate SSCs; assay type: cell-based; settings: BIO 1 μM; non-human primate cultures
[3] = system: human SSCs; assay: formation of ESC-like colonies in culture of human SSCs; assay type: cell-based; settings: BIO 1 μM; human cultures
Description: To optimize the culture condition, DMEM/F12 (1:1; Invitrogen) was applied instead of DMEM as basic medium and several growth factors for long-term culture were added: GDNF (4-50 ng/ml), bFGF (1-10 ng/ml), LIF (10^3 Units/ml), BIO (Calbiochem) and 1×B27 (Invitrogen). Collagenase IV (1 mg/ml in PBS) was used instead of trypsin/EDTA for passaging the cells. […] Tightly packed ESC-like colonies derived from human SSCs after 7 passages (about 1 month; FIG. 3d, e) when cells are cultured in DMEM/F12 medium containing 15% FCS, 2 mM glutamine, 1×NEAA, 50 μM β-ME, 10 ng/ml GDNF, 2 ng/ml bFGF, 10^3 Units/ml LIF and 1×B27.

[4] = biological target: T1, L-type calcium channels (Mus musculus, UniProt Q01815); assay: chronotropic effects of cardioactive drugs on beating cardiac clusters; assay type: cell-based; settings: beating cardiac clusters at day 5+15; for beating frequency / contraction: 10^−5 mol/L; for chronotropic effect on the beating frequency of maGSC-derived cardiomyocytes: dose dependence
T1 construct: functional L-type calcium channels exist in the maGSC-derived beating cardiomyocytes; endogenous in cells; host or cells: beating cardiac clusters (day 5+15) differentiated from mouse maGSCs
T1 sequence (Q01815 whole entry): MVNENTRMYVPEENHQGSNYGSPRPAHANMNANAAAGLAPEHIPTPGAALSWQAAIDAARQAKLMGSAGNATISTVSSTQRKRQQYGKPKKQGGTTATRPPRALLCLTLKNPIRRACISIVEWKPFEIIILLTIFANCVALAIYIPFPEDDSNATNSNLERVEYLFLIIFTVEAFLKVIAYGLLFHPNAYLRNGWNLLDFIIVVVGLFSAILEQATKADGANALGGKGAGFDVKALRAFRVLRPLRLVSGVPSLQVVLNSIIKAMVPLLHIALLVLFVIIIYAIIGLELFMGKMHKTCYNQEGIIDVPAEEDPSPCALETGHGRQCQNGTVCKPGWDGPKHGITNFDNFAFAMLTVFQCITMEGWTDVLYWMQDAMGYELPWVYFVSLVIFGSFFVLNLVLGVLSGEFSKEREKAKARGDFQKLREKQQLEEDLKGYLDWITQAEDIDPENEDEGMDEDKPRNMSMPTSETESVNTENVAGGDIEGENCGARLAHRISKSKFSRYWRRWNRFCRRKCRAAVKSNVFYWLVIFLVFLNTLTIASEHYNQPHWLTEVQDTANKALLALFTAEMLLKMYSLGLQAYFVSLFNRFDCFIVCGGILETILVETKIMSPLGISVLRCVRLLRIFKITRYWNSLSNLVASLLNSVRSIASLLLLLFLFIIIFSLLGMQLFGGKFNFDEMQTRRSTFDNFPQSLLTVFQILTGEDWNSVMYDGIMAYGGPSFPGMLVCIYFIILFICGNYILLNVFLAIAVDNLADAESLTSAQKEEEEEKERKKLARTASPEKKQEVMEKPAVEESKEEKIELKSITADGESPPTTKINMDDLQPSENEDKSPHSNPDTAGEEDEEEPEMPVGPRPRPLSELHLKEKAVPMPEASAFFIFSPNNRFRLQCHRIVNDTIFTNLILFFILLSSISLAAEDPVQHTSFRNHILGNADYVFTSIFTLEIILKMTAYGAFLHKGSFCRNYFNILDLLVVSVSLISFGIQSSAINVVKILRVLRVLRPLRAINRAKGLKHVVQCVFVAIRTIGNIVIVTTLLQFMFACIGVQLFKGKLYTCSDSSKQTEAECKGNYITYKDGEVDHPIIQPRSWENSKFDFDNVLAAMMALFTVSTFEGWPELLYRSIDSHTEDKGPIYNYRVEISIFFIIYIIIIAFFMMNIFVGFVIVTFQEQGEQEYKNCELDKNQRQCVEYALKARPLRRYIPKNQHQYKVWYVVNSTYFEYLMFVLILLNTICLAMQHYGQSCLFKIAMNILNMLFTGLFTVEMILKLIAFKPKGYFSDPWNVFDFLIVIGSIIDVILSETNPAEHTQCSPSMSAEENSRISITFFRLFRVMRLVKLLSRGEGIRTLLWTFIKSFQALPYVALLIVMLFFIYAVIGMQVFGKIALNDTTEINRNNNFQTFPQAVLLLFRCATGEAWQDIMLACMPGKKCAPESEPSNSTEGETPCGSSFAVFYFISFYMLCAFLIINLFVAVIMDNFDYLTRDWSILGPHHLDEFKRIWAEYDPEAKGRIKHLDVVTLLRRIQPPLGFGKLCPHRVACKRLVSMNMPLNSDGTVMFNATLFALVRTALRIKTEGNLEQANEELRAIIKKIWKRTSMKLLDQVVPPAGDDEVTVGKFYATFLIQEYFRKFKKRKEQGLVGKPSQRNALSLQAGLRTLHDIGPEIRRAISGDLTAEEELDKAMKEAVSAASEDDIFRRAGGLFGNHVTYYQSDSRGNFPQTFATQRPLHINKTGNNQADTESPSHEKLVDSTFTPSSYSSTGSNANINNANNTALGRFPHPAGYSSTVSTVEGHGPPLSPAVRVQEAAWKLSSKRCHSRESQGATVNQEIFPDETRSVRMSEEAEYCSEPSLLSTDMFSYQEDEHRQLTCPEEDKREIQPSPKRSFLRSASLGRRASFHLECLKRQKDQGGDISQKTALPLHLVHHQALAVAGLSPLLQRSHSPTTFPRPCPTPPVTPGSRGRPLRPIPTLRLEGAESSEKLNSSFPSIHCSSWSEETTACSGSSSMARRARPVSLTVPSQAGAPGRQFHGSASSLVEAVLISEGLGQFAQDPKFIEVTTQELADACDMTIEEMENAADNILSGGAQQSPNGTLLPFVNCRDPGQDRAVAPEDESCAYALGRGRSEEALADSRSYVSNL
T1 sequence (Q8CC27 whole entry partner): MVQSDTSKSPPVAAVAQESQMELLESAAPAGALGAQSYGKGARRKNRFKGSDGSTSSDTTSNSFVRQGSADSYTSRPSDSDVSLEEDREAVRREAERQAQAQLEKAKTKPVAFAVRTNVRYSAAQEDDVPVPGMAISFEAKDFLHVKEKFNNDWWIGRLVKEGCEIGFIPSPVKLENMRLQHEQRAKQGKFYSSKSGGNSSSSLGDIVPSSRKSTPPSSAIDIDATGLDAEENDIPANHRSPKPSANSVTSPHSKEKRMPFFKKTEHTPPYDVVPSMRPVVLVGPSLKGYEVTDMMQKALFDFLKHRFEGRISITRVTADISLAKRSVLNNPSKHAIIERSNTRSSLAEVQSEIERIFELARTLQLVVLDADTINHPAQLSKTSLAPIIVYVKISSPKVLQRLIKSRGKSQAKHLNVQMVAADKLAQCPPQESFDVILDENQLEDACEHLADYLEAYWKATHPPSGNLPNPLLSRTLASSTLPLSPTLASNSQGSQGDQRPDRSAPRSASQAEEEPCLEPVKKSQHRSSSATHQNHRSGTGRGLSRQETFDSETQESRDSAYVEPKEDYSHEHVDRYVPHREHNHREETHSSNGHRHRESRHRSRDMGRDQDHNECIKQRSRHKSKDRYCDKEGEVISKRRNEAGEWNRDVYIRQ
T1 sequence (O08532 25-956 partner limits assumed): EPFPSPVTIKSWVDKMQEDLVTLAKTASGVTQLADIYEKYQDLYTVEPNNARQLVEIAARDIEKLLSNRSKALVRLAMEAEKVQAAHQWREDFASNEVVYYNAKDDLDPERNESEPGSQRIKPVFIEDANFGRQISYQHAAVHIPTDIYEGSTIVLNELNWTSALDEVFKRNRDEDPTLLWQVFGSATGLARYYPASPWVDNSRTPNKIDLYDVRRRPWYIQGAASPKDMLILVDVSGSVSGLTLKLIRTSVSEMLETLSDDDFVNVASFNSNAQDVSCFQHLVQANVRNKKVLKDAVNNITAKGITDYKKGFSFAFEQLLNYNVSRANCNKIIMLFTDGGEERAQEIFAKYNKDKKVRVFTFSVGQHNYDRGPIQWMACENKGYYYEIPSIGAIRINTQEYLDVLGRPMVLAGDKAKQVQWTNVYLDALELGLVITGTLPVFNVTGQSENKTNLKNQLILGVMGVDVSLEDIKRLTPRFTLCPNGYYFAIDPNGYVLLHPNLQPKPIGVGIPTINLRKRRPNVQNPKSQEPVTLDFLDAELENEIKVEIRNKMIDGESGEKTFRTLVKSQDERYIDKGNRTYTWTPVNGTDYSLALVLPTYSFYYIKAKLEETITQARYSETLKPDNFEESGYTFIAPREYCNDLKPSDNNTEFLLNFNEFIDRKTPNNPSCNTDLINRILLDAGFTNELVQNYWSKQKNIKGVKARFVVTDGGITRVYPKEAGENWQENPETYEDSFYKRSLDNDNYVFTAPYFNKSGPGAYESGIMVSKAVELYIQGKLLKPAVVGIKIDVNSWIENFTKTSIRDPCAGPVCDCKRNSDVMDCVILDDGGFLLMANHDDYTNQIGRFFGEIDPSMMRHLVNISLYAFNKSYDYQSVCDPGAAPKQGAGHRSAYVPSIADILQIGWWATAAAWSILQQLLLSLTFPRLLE
T1 sequence (O08532 957-1103 partner limits assumed): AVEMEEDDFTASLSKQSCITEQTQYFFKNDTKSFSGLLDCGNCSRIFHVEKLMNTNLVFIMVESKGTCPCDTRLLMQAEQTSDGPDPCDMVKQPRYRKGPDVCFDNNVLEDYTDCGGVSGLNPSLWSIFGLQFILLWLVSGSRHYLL
Source text: In cardiac muscle, where Ca^2+ influx across the sarcolemma is essential for contraction, the dihydropyridine (DHP)-sensitive L-type calcium channel (DHP receptor) represents the major entry pathway of extracellular Ca^2+. […] The function of L-type calcium channels is examined in beating cardiac clusters at day 5+15 by evaluating chronotropic effects of cardioactive drugs.

[5] = system: voltage-gated Na+ and L-type Ca2+ channels; assay: patch-clamp spontaneous action potentials, channel blockade; assay type: cell-based, mouse; settings: cadmium 0.5 mmol/L; maGSC-derived cardiomyocytes
Description: To determine the functional expression of […] receptors in cardiomyocytes, the effects of β-adrenergic agonist isoproterenol (Iso; 1 μmol/L) on APs were studied. […] This is again in line with data from the ESC-derived cardiomyocytes. […] A further hint for the involvement of fast depolarising Na^+ channels are AP upstroke velocities in the magnitude of 30-50 Vs^−1 for ventricle-, purkinje and atrial-like APs (Table 3).
The membrane potential (Em) of cardiomyocytes was measured at room temperature with ruptured-patch whole cell current clamp (Maier, L. S., et al., Circ Res 2003, 92, 904-11). Fire-polished glass microelectrodes of >10 MΩ resistance when filled with pipette solution were used. Pipette solution contained (in mM) 120 potassium aspartate, 8 KCl, 7 NaCl, 1 MgCl2, 10 HEPES, 5 Mg-ATP, 0.3 Li-GTP (pH 7.2 with KOH). A normal Tyrode's solution with 2 mM CaCl2 served as bath solution. Access resistance was typically ˜20 MΩ after patch rupture. Liquid junction potentials were corrected before recording started. Spontaneous action potentials (APs) were recorded 1 min after patch rupture and followed for about 2 min. Signals were acquired at 1 kHz, filtered with 2.9 and 10 kHz Bessel filters, and recorded with an EPC10 amplifier (HEKA Elektronik, Lambrecht/Pfalz, Germany). […]

| Compound | beating frequency / contraction [4] | chronotropic effect on the beating frequency of maGSC-derived cardiomyocytes [4] | other results |
| --- | --- | --- | --- |
| CC1(C)[C@@H](OC(=O)CCC(=O)O)CC[C@]2(C)[C@H]3C(=O)C=C4[C@@H]5C[C@@](C)(C(=O)O)CC[C@]5(C)CC[C@@]4(C)[C@]3(C)CC[C@@H]12 [carbenoxolone, 3β-hydroxy-11-oxoolean-12-en-30-oic acid 3-hemisuccinate] | – | – | fluorescence recovery after photobleaching [1]: disrupted; also recorded: almost completely abolished |
| O=C1Nc2cc(Br)ccc2/C1=C1/Nc2ccccc2/C1=N\O [BIO, (2′Z, 3′E)-6-Bromoindirubin-3′-oxime] | – | – | formation of ESC-like colonies [2]: optimized the formation of ESC-like colonies; formation of ESC-like colonies [3]: optimized the formation of ESC-like colonies |
| (S)-BayK 8644 | doubles the beating frequency | dose-dependent positive chronotropic effects | – |
| COc1ccc([C@@H]2Sc3ccccc3N(CCN(C)C)C(=O)[C@@H]2OC(C)=O)cc1 [diltiazem] | almost completely blockes the contraction | dose-dependent negative chronotropic effects | – |
| [Cd] [cadmium] | – | – | spontaneous APs [5]: completely abolished |
